The text below walks through data of US8629135B2, “Pharmaceutical compositions comprising RET inhibitors and methods for the treatment of cancer” (Queen's University at Kingston, priority 2008, dated 2014).

Values joined by “and” are separate entries in the source; they are usually repeats but may differ in a detail not shown here. Identical values can stand only once. “Also recorded” adds a separate entry of the source. Counter-ions that a name gives are not always drawn. Like-named read-outs stand apart in the source and are kept apart here. A value given as a limit tells only on which side of the number the result lay.

Test [1] addresses T1, RET (Homo sapiens (Human), UniProt P07949). Nature of the test: RET autophosphorylation (pY905 Western blot) in HEK293 cells stably expressing RET. The test is classed as cell-based. On the technique in general: Immunoblotting shows a protein as a band on a membrane.
Target sequence in this assay (P07949 29-1114 limits assumed): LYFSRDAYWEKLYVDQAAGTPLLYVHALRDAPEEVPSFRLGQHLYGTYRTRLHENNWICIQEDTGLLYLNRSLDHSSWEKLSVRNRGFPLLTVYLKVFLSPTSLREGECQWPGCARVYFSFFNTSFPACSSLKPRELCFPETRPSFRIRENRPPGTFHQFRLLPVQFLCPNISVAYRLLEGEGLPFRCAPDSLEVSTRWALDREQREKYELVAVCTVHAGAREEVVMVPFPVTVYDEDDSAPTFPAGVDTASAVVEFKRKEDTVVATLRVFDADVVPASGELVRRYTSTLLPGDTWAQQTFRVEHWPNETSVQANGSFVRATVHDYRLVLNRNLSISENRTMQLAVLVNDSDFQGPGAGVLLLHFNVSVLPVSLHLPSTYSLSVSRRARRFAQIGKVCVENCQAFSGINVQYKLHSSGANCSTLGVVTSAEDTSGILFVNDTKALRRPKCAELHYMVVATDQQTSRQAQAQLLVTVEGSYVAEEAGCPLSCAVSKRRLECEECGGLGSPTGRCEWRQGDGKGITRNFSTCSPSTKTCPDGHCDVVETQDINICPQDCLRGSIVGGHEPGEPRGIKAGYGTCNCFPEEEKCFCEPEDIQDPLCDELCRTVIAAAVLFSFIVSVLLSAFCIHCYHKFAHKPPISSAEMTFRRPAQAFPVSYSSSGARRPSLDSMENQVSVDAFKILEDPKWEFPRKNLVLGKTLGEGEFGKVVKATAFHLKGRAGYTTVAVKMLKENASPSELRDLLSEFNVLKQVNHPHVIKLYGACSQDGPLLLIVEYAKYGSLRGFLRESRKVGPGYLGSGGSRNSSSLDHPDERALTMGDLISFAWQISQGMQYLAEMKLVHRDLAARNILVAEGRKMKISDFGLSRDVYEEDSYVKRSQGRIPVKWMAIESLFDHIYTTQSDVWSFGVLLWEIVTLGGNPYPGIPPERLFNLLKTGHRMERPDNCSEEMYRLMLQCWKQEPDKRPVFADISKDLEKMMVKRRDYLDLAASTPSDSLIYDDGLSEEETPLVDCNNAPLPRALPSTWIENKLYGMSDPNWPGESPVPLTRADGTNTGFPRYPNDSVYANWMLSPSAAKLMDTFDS
The target of test [2] is T1, RET. Put plainly: Protein based RET kinase assay with purified recombinant GST-RET. The test is classed as biochemical.
Target sequence in this assay (P07949 29-1114): as the sequence (P07949 29-1114 limits assumed) above
The subject of a further test is MiaPaca-2 tumours. Put plainly: Xenograft study, subcutaneous MiaPaca-2 tumours. Type of test: in vivo. Conditions: MiaPaca-2 xenograft, nude mice, intraperitoneal; SW-01 50 mg/kg, gemcitabine 120 mg/kg.
The subject of the next test is MiaPaca-2 cells. The conditions noted are these: presence of GDNF.
The test system of the next test is BxPc3 tumours. The conditions noted are these: BxPc3 xenograft, nude mice, 50 mg/kg intraperitoneal every three days.
Test [3] deals with T1, RET. The arrangement: key to the marks not given beside the values. The conditions noted are these: RET phosphorylation levels.
Target sequence in this assay (P07949 29-1114): as the sequence (P07949 29-1114 limits assumed) above
For test [4], the system named is TT cells.
For test [5], the system named is RET-expressing HEK293 cells.
The subject of a further test is MCF7 cells. Conditions: presence of GDNF.
Test [6] has as its system HEK293 cells stably expressing RET.
The subject of test [7] is RET-mediated activation of ERK. Conditions: increasing concentrations, HEK293 cells.
The target of the next test is RET V804M mutant (Homo sapiens (Human), UniProt P07949, V804M). The conditions noted are these: HEK293 cells, 2 h.
For a further test, the target named is RET M918T mutant (Homo sapiens (Human), UniProt P07949, M918T). Conditions: HEK293 cells, 2 h.
The test system of test [8] is MiaPaca-2 cells expressing RET. Conditions: MiaPaca-2, GDNF + SW-01 (5 μM) relative to GDNF alone.
The subject of a further test is ERK or AKT pathways. Conditions: parental HEK 293 cells not expressing RET, increasing concentration.
For test [9], the system named is TT cells. The conditions noted are these: 24 hours, 10× magnification.
Where [10] appears, read: purified protein assay, read-out: IC50.
Where [11] appears, read: varying concentrations, 2 hours, HEK293 cells expressing RET.
Setting [12] is: cell based assay, read-out: EC50.

Sequence of RET M918T mutant (P07949 29-1114 M918T): as the sequence (P07949 29-1114 limits assumed) above, with M890T counted along it
Sequence of RET V804M mutant (P07949 29-1114 V804M): as the sequence (P07949 29-1114 limits assumed) above, with V776M counted along it

On RET [1], `CCN(CC)CCCOC(=O)CC1c2ccccc2C=Cc2ccccc21` [SW-12, (5H-Dibenzo[a,d]cyclohepten-5-yl)-acetic acid 3-diethylamino-propyl ester] displayed an EC50 greater than 20 µM. Besides, the IC50 on RET [2] (setting [10]) worked out at 4 µM.
Regarding `CNCCC=C1c2ccccc2CCc2ccccc21` [SW-04, Nortriptyline], on RET [1] (EC50, cell based assay), the EC50 was 10 µM. For the same molecule, at RET [1] (setting [11]), the RET autophosphorylation result was “did not affect RET autophosphorylation”. In addition, the IC50 at RET [2] (setting [10]) came out at 1.5 µM.
In turn, `C[N+](C)([O-])CCC=C1c2ccccc2CCc2ccccc21.Cl` [SW-03, 3-(10,11-Dihydro-5H-dibenzo[a,d]cyclohepten-5-ylidene)-N,N-dimethyl-1-propanamine N-oxide hydrochloride] registered an EC50 on RET [1] greater than 20 µM. For the same molecule, the RET autophosphorylation entry on RET [1] (setting [11]) was “did not affect RET autophosphorylation”. Further, on RET [2] (setting [10]), the IC50 came out at 10 µM.
Consider `CNCCC=C1c2ccccc2CCc2ccccc21.Cl` [SW-02, Nortriptyline Hydrochloride], for which the EC50 at RET [1] (EC50, cell based assay) was greater than 20 µM. In addition, the RET autophosphorylation entry at RET [1] (varying concentrations, 2 hours, HEK293 cells expressing RET, Hydrochloride) is “inhibited RET activity; also recorded: decreased RET activity”. Further, the IC50 on RET [2] (purified protein assay, Hydrochloride, read-out: IC50) came out at 5 µM.
Molecule `NCC1c2ccccc2CCc2ccccc21` [SW-08, 10,11-Dihydro-5H-dibenzo[a,d]cycloheptene-5-methanamine] returned an EC50 on RET [1] of 20 µM. The IC50 on RET [2] (setting [10]) was found to be 5 µM.
Regarding `CN(CCCN1c2ccccc2CCc2ccccc21)CC(=O)c1ccc(Cl)cc1` [SW-06, Lofepramine], the EC50 on RET [1] (setting [12]) is greater than 20 µM. Further, on RET [2] (setting [10]), the IC50 is greater than 20 µM.
`CN(C)CCC=C1c2ccccc2CCc2ccccc21` [SW-05, Amitriptyline] gave an EC50 on RET [1] of 5 µM. In addition, on RET [1] (setting [11]), the RET autophosphorylation entry was “inhibited RET activity; also recorded: decreased RET activity”. The IC50 at RET [2] (setting [10]) stood at 1 µM.
On to `NCCCC1(CCCN)c2ccccc2-c2ccccc21` [SW-10, 9,9-Bis(3-aminopropyl)-fluorine], for which, at RET [1] (setting [12]), the EC50 was greater than 20 µM. Besides, on RET [2] (setting [10]), the IC50 was greater than 20 µM.
Take `CNCCC=C1c2ccccc2C=Cc2ccccc21` [SW-15, Norcyclo- benzaprine (NCBA)]: at RET [1], it took 1 µM to reach a half-maximal effect (EC50). Also, the RET autophosphorylation result at RET [1] (setting [11]) is recorded as “inhibited RET”.
Regarding `CN(C)CCCC1(O)c2ccccc2C=Cc2ccccc21` [SW-11, 5-(3-Dimethylamino-propyl)-5H-dibenzo[a,d]cyclohepten-5-ol], the EC50 on RET [1] (setting [12]) was greater than 20 µM. Also, the IC50 on RET [2] (setting [10]) was greater than 10 µM.
Regarding `Nc1ccn([C@@H]2O[C@H](CO)[C@@H](O)C2(F)F)c(=O)n1` [gemcitabine, reference compound], the tumour growth entry with MiaPaca-2 tumours is “no statistical difference between SW-01 and gemcitabine treatment groups”.
In the case of `CN(C)CCC=C1c2ccccc2C=Cc2ccccc21.Cl` [SW-01, Cyclobenzaprine Hydrochloride], the apoptosis result with MiaPaca-2 cells is “caused dose-dependent apoptosis”; in the test with TT cells [4], “led to apoptosis”; with MCF7 cells it was “caused apoptosis in MCF7 cells in a dose-dependent fashion”; in the test on NCIH69 cells it was “caused apoptosis in NCIH69 cells in a dose-dependent fashion”. Besides, the tumour growth result was “caused slowed and reduced tumour growth” in the test with BxPc3 tumours; “no statistical difference between SW-01 and gemcitabine treatment groups” with MiaPaca-2 tumours. Further, at RET [3], the “SW-01 Inhibition (10 μM)” value is “++”. Besides, the “cell proliferation (MTT)” value with MiaPaca-2 and in the test with BxPc3 was “caused decreased cell proliferation” throughout. Moreover, the RET autophosphorylation result at RET [1] (10 μM for 2 hours, HEK293 cells expressing activated wildtype RET, Hydrochloride) is given as “significantly inhibited RET autophosphorylation”; on RET [1] (10 μM for 2 hours, HEK293 cells expressing activated wildtype RET, listed as NSC78206, Hydrochloride) it was “significant RET inhibition”; on RET [1] (setting [11]), “blocked or dramatically reduced”. On RET [1] (EC50, cell based assay), the EC50 worked out at 1 µM. The “expression levels of RET” value at RET [1] (pan RET antibody, HEK293 cells) is “did not affect expression levels of RET”. The “RET-mediated colony formation in soft agar” value in test [5] is “inhibits RET-mediated colony formation”. The “RET-mediated cell proliferation (MTT)” value in [6] is “reduces RET-mediated cell proliferation”. In addition, the “amount of pERK” value in [7] is recorded as “significantly reduced”. Further, the “RET phosphorylation (pRET/RET)” value at RET V804M mutant and at RET M918T mutant was “inhibited by SW-01 in a concentration dependent fashion” in each case. The IC50 was 0.3 µM and 0.307 µM at RET [2] (kinase assays using purified recombinant RET proteins, Hydrochloride, read-out: IC50 for RET); 0.3 µM at RET [2] (setting [10]). For the same molecule, on RET [2] (purified recombinant RET, pY905 Western blot), the RET autokinase activity result is “significantly reduced RET autokinase activity”. The “cell migration (wound closure)” value in [8] was “cell migration was inhibited”. The “effect on ERK or AKT pathways” value in the test on ERK or AKT pathways was “did not affect ERK or AKT pathways”. Further, the cell morphology result with TT cells [9] is reported as “exhibited induced morphological changes”.
Regarding `CN(C)CCNC1c2ccccc2-c2ccccc21` [SW-09, N′-Fluoren-9-yl-N,N-dimethyl-ethylenediamine dihydrochloride], the EC50 on RET [1] (setting [12]) is greater than 20 µM. Besides, the concentration for half-maximal inhibition (IC50) at RET [2] (setting [10]) was greater than 20 µM.
Turning to `CN(C)CCC=C1c2ccccc2C(C)(C)c2ccccc21` [SW-14, Melitracin], the EC50 on RET [1] (setting [12]) is greater than 20 µM. Moreover, the IC50 on RET [2] (setting [10]) was greater than 20 µM.
Turning to `CN(C)CCOC1c2ccccc2C=Cc2ccccc21` [SW-13, [2-(5H-Dibenzo[a,d]cyclohepten-5-yloxy)-ethyl]-dimethyl-amine], the EC50 at RET [1] (setting [12]) came out at 7 µM. Also, at RET [2] (setting [10]), the IC50 came to 2.5 µM.

As usually defined, the EC50 is the concentration needed to bring the measured effect to its halfway point. What is called IC50 is the point on the concentration scale where inhibition reaches its midpoint.
